Laboratory results from patent EP3135113A1, “USE OF HERBICIDAL COMPOSITIONS FOR CONTROLLING UNWANTED VEGETATION” (BASF SE, priority 2015, dated 2017).

Tested on: Amaranthus palmeri
Assay: field test, post-emergence spray, visual injury rating of Palmer amaranth (scale 0 to 100)
Assay type: in vivo
Settings: 3 days after treatment, 0.25% by volume non-ionic surfactant (Induce), 185 liter/ha
Text: The following examples summarized in table 1 serve to illustrate the invention: • Dicamba was applied as Engenia™ herbicide [BAPMA salt - (bis(3-aminopropyl)methylamine))], while 2,4-DB was applied as the commercially available Butyrac® 200 (dimethylamine salt). Herbicides were applied at an appropriate weight of each product dissolved in 1 liter of water. All herbicide treatments were applied with 0.25% by volume of a non-ionic surfactant (Induce®; an adjuvant composition consisting of alkyl aryl polyoxyalkane ethers, alkanolamides, dimethyl siloxane and free fatty acids). The spray solution was applied by a CO2 powered backpack sprayer delivering the spray solution at a rate of 185 liter/ha. The spray solution was applied to a field naturally populated with Palmer amaranth (Amaranthus palmeri) with an average height of 4-6 inches in height, however, plants both larger and smaller plants were in the field at the time of application as well. Palmer amaranth was assessed for visual injury 3 days after treatment and injury was rated on a scale from 0 to 100, whereby 0 equals no herbicidal response and 100 equals complete control of the Palmer amaranth.

Row | Compound | herbicidal activity against Amaranthus palmeri (% control) found (Exp. No. 1, dicamba 420 g/ha a.i.) [%] | herbicidal activity against Amaranthus palmeri (% control) found (Exp. No. 2, 2,4-DB 17.5 g/ha a.i.) [%] | herbicidal activity against Amaranthus palmeri (% control) found (Exp. No. 3, 2,4-DB 35 g/ha a.i.) [%] | herbicidal activity against Amaranthus palmeri (% control) found (Exp. No. 4, 2,4-DB 52.5 g/ha a.i.) [%]
1 | COc1c(Cl)ccc(Cl)c1C(=O)O [dicamba, 3,6-dichloro-2-methoxybenzoic acid] | 60 | – | – | –
2 | 4-(2,4-dichlorophenoxy)butanoic acid [2,4-DB] | – | 0 | 5 | 15
